Experimental data published in paper PMC5607274, “An iterative compound screening contest method for identifying target protein inhibitors using the tyrosine-protein kinase Yes” (Scientific Reports, 2017).

Molecular target: T1, human recombinant Yes [a.a. 2–543 (end)] (Homo sapiens, UniProt P07947)
T1 construct: human recombinant Yes [a.a; 2–543 (end)]; purchased BPS Bioscience 40488
Assay: ADP-Glo kinase assay, inhibition rates of Yes phosphorylation activity (first and second screening)
Format: biochemical
Conditions: 10 μmol L−1 compound; for First screening IR (inhibition rate): mean of n = 4 wells
How it was run: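 ADP-Glo luminescence measured inhibition of human recombinant Yes (a.a. 2–543) phosphorylation activity. In the first screen, each compound ran in 4 wells and inhibition rates were averaged. The second screen retested hits as compounds dissolved from fresh powder.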

T1 sequence (P07947 2-543): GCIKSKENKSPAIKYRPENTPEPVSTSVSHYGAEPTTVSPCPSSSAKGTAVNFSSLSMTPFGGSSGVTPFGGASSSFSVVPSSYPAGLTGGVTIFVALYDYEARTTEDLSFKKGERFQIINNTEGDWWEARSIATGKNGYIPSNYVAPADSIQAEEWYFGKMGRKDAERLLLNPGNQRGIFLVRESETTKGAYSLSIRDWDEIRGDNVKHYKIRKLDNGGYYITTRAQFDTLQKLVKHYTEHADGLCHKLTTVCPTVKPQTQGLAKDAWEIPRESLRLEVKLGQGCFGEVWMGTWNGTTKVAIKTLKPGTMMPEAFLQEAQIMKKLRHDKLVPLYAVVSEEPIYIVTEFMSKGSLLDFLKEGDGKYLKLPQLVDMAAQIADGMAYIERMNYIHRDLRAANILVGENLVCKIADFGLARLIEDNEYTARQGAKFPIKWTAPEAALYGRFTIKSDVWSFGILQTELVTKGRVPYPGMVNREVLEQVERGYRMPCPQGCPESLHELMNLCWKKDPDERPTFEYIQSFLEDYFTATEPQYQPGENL

First screening IR (inhibition rate) | Second screening IR (inhibition rate) (second screening, dissolved from fresh powder, n = 4) | Structure (SMILES)
6% | – | Cc1ccc(C(CN2CCOCC2)NC(=O)Cn2cnc3sc(-c4ccccc4)cc3c2=O)cc1 (stereo not shown) [Compound Z146866146]
1% | – | CCn1c2ccccc2c2cc(NC(=O)COC(=O)c3c4c(nc5ccccc35)CCCC4)ccc21 [Compound Z19690549]
13% | – | CS(=O)(=O)c1ccc(N2CCCC2)c(S(C)(=O)=O)c1 [Compound Z168801896]
56% | – | c1cc(-c2nc3c(c(N4CCCC(N5CCCC5)C4)n2)CCC3)ccn1 (stereo not shown) [Compound Z1070397714]
7% | – | CC(C)(C)C1CCC(C(=O)N2CCC(C(=O)N3CCCCCC3)CC2)CC1 (stereo not shown) [Compound Z191288442]
20% | – | O=C(C1=C(O)C(=O)N(CCCn2ccnc2)C1c1ccc(Cl)cc1)c1ccco1 (stereo not shown) [Compound Z57237929]
9% | – | Cc1cc(Cl)cc(Br)c1OCCNCCN(C)C.Cl [Compound Z237479802]
3% | – | Clc1ccc(/C=C2/CCCc3c2nc2ncnn2c3-c2ccc(Cl)cc2Cl)c(Cl)c1 [Compound Z56798990]
-4% | – | CCOC(=O)/C=c1\s/c(=C/c2ccc(N3CCOCC3)c([N+](=O)[O-])c2)c(=O)n1CC(=O)N1CCC(C)CC1 [Compound Z48712790]
2% | – | CCn1ncc2c(C(=O)OCC#N)cc(-c3cccs3)nc21 [Compound Z227189870]
-2% | – | NC(=O)c1ccc(COc2ccc(I)cc2)c(F)c1 [Compound Z816021628]
-8% | – | CN(C)c1ccc(/C=c2/s/c(=C/C(=O)C(C)(C)C)[nH]c2=O)cc1 [Compound Z46615661]
-2% | – | Cn1ncc2c(N3CCOC(c4ccc(F)cc4)C3)ncnc21 (stereo not shown) [Compound Z319092016]
12% | – | Cc1nc(-c2ccncc2)[nH]c(=O)c1CCC(=O)NCc1ccncc1 [Compound Z873001918]
-18% | – | C#CCN(C)S(=O)(=O)c1cc(S(C)(=O)=O)sc1Cl [Compound Z1863649257]
-9% | – | CCN(CC)c1ccc(C(=O)NC(=S)Nc2nc(-c3cccs3)cs2)cc1 [Compound Z56787522]
2% | – | CC(C)CNC(=O)CN1CCN(c2nc(-c3ccccn3)nc3scc(-c4ccccc4)c23)CC1 [Compound Z196146788]
-2% | – | Cc1ccc(-c2cc(C(=O)NC(c3ccccc3F)c3nccn3C)c3cnn(C(C)C)c3n2)s1 (stereo not shown) [Compound Z225919834]
-10% | – | CC(C)n1ncc2cc(C(=O)Nc3ccc4[nH]c(=O)[nH]c4c3)cnc21 [Compound Z217430364]
9% | – | CCCCn1c(CN2CCN(c3ncccn3)CC2)nc2c1c(=O)[nH]c(=O)n2Cc1ccccc1 [Compound Z104925552]
-4% | – | N#Cc1ccc(-c2cc(-c3ccccc3)c3cc(Br)ccc3n2)cc1 [Compound Z415722772]
-4% | – | O=C(CCNC(=O)c1cccs1)Nc1ccc2nc(-c3cccc(F)c3)[nH]c2c1 [Compound Z594945904]
3% | – | N#CCCn1ncc2c(N3CCN(Cc4ccco4)CC3)ncnc21 [Compound Z990852254]

First screening IR (inhibition rate) | Second screening IR (inhibition rate) (second screening, dissolved from fresh powder, n = 4) | Structure (SMILES)
2% | – | NC(=O)c1cnc(NCc2ccnc(N3CCCCC3)c2)c(Cl)c1 [Compound Z729056808]
6% | – | O=C(NC(C1CC1)C1CC1)C1CCCN1c1ncnc2sccc12 (stereo not shown) [Compound Z1190394303]
-3% | – | COc1ccc(-c2nnc(SCC(=O)N3c4ccccc4OCC3c3ccccc3)n2C)cc1 (stereo not shown) [Compound Z65980497]
16% | – | Cc1ccc(-c2cc(C(=O)NC(C)c3ccccn3)c3cnn(C(C)C)c3n2)cc1 (stereo not shown) [Compound Z225035912]
2% | – | Cc1cccc(-c2nn(-c3ccccc3)cc2C(=O)N(C)CC(=O)Nc2ccc(N3CCOCC3)cc2)c1 [Compound Z26593505]
-31% | – | N#Cc1ccc(CN2CCN(Cc3c(-c4ccccc4)nc4sccn34)CC2)cc1 [Compound Z89137945]
0% | – | C/C=C/C=C/C(=O)NCc1cccc(C(=O)NCc2ccco2)c1 [Compound Z737550454]
-5% | – | CC(c1cc2ccccc2o1)N(C)c1ncnc2c1cnn2C (stereo not shown) [Compound Z328694162]
33% | – | CC(Sc1nnc(NCc2ccc(F)cc2)s1)C(=O)N1CCCCCC1 (stereo not shown) [Compound Z151845340]
-31% | – | CC(C)c1ccc2cc(C(=O)NCCN3CCS(=O)(=O)CC3)[nH]c2c1 [Compound Z649805708]
-20% | – | O=S(=O)(c1cccc(-c2n[nH]c(-c3ccccc3)c2-c2nc3ccccc3[nH]2)c1)N1CCCC1 [Compound Z56870429]
-3% | – | CC(C)(C)c1[nH]ncc1/C=C1/CCn2c1nc1cc(Cl)ccc1c2=O [Compound Z821199838]
-13% | – | Cc1ccc(Cn2ncc3c(N4CCN(CCO)CC4)ncnc32)cc1 [Compound Z1172235406]
-2% | – | c1cncc(-c2nc(SCc3nc4ccccc4o3)n[nH]2)c1 [Compound Z1095448120]
-8% | – | CN(C)c1nc(N)nc(CSCCC(=O)Nc2ccccc2)n1 [Compound Z327260972]
27% | – | Cc1nn(C)c2nc(C3CC3)cc(C(=O)Nc3ccccc3O)c12 [Compound Z235446856]
1% | – | COc1ccc(-n2cc(-c3ccccc3)c3c(NCCCO)ncnc32)cc1 [Compound Z57455872]
17% | – | CN(C1CCS(=O)(=O)C1)S(=O)(=O)c1cc(Cl)cc(Cl)c1 (stereo not shown) [Compound Z89320874]
4% | – | CC(Nc1ccc2c(c1)OCCO2)C(=O)Nc1ccc(F)c(F)c1F (stereo not shown) [Compound Z44489053]
-2% | – | COC(=O)c1c2c(nc3ccccc13)/C(=C\c1ccc3c(c1)OCO3)CCC2 [Compound Z19539846]
4% | – | CC(=O)c1c[nH]c(C(=O)NCc2csc(-c3ccccc3)n2)c1 [Compound Z236994250]
7% | – | O=C(O)c1cc(-c2ccccc2)nc2c1cnn2Cc1ccccc1Cl [Compound Z223844412]
9% | – | COc1ccc(-c2cc(C(=O)O)c3cnn(C(C)C)c3n2)cc1OC [Compound Z56643618]

First screening IR (inhibition rate) | Second screening IR (inhibition rate) (second screening, dissolved from fresh powder, n = 4) | Structure (SMILES)
-4% | – | CCN(CC)C(=O)CN1CCCN(c2ncnc3c2cnn3C)CC1 [Compound Z359324360]
6% | – | COc1ccc2ccc(OCc3nc(N)nc(N(C)C)n3)cc2c1 [Compound Z168975100]
-3% | – | O=C(Cc1ccc(OC(F)F)cc1)N1CCC(c2nc(-c3ccccc3)n[nH]2)CC1 [Compound Z991836758]
4% | – | Cc1noc(C)c1COC(=O)c1ccc2[nH]c(C)c(C)c2c1 [Compound Z17094388]
35% | -11% | Cc1nn(C)c2nc(-c3ccccc3)cc(C(=O)Nc3ccc4nc(CN5CCOCC5)[nH]c4c3)c12 [Compound Z826860216]
3% | – | COc1ccc2c(C)cc(N/N=C/c3ccncc3)nc2c1 [Compound Z50018323]
9% | – | CCn1cnc2c1c(=O)n(CC(=O)N1CCC(Cc3ccccc3)CC1)c(=O)n2Cc1ccccc1 [Compound Z24103907]
2% | – | CC1CN(CC2CCN(CC(=O)Nc3cc(Cl)ccc3Cl)CC2)CC(C)O1 (stereo not shown) [Compound Z1033314424]
21% | – | FC(F)(F)c1ccnc(Nc2ccc3c(c2)OCO3)n1 [Compound Z285674740]
57% | – | CC(C)(C)NC(=O)CN1CCN(C(=O)CSc2nc3ccccc3c(=O)n2-c2ccccc2)CC1 [Compound Z65695011]
-1% | – | CC(c1ccc(F)c(F)c1)N(C)c1ncnc2c1cnn2C (stereo not shown) [Compound Z328694928]
-9% | – | CCn1ncc2c(C(=O)N(C)C)cc(-c3cccs3)nc21 [Compound Z254580980]
0% | – | Cc1cc(C)c(NC(=O)C2CCN(c3ncnc4sc(C)c(C)c34)CC2)c(C)c1 [Compound Z57042877]
-2% | – | Cc1cc(COC(=O)c2cc(-c3cccs3)nc3c2cnn3C(C)C)no1 [Compound Z215601214]
15% | – | COc1ccccc1-c1nn(-c2ccccc2)cc1C(=O)N1CCN(CC(=O)N2CCCCC2)CC1 [Compound Z145138304]
14% | – | Cc1cc(S(C)(=O)=O)c(C)c(S(=O)(=O)N2CCCC(C)C2)c1 (stereo not shown) [Compound Z1145185785]
43% | – | Fc1ccc(-c2cc(-c3ccc(Cl)cc3)c3ccccc3n2)cc1 [Compound Z1270166647]
-23% | – | Cc1cc(C(=O)/C(C#N)=C2\C(=O)Nc3c(Cl)cc(Cl)cc32)c(C)n1-c1cccc(C(F)(F)F)c1 [Compound Z56789382]
12% | – | O=C(CN1CCN(C(=O)c2cc(-c3ccccc3)nc3c2cnn3Cc2ccncc2)CC1)NC1CC1 [Compound Z109522106]
38% | – | Cc1nn(CCc2nc(-c3ccco3)cs2)c2nc(-c3cccs3)cc(C(F)(F)F)c12 [Compound Z55404718]
17% | – | COc1ccccc1NC(=O)c1ccc(NC(=O)COc2ccc(-n3cnnn3)cc2)cc1 [Compound Z25181441]

Structure (SMILES) | First screening IR (inhibition rate) | Second screening IR (inhibition rate) (second screening, dissolved from fresh powder, n = 4)
CC1CN(CCCNc2ccc([N+](=O)[O-])c3nonc23)CC(C)O1 (stereo not shown) [Compound Z238688270] | 4% | –
O=C(O)/C=C/c1ccc(NC(=O)CSC(c2ccccc2)c2ccccc2)cc1 [Compound Z224289160] | -8% | –
